Measurements: ChEMBL document CHEMBL5727115, “TYK2 inhibitors and uses thereof” (2019)

Biological target: Non-receptor tyrosine-protein kinase TYK2 (Homo sapiens, UniProt P29597)
Assay: TYK2 JH2 Domain Binding Assay: Binding constants for compounds of the present invention against the JH2 domain were determined by the following protocol for a KINOMEscan® assay (DiscoveRx). A fusion protein of a partial length construct of human TYK2 (JH2domain-pseudokinase) (amino acids G556 to D888 based on reference sequence NP_003322.3) and the DNA binding domain of NFkB was expressed in transiently transfected HEK293 cells. From these HEK 293 cells, extracts were prepared in M-PER extraction buffer (Pierce) in the presence of Protease Inhibitor Cocktail Complete (Roche) and Phosphatase Inhibitor Cocktail Set II (Merck) per manufacturers' instructions. The TYK2 (JH2domain-pseudokinase) fusion protein was labeled with a chimeric double-stranded DNA tag containing the NFkB binding site (5′-GGGAATTCCC-3′ (SEQ ID NO: 1)) fused to an amplicon for qPCR readout, which was added directly to the expression extract (the final concentration of DNA-tag in the binding reaction is 0.1 nM).Streptavidin-coated magnetic beads (Dynal M280) were treated with a biotinylated small molecule ligand for 30 minutes at room temperature to generate affinity resins the binding assays. […]
Format: cell-based

Sequence of Non-receptor tyrosine-protein kinase TYK2 (P29597 whole entry, the tested form may be a part): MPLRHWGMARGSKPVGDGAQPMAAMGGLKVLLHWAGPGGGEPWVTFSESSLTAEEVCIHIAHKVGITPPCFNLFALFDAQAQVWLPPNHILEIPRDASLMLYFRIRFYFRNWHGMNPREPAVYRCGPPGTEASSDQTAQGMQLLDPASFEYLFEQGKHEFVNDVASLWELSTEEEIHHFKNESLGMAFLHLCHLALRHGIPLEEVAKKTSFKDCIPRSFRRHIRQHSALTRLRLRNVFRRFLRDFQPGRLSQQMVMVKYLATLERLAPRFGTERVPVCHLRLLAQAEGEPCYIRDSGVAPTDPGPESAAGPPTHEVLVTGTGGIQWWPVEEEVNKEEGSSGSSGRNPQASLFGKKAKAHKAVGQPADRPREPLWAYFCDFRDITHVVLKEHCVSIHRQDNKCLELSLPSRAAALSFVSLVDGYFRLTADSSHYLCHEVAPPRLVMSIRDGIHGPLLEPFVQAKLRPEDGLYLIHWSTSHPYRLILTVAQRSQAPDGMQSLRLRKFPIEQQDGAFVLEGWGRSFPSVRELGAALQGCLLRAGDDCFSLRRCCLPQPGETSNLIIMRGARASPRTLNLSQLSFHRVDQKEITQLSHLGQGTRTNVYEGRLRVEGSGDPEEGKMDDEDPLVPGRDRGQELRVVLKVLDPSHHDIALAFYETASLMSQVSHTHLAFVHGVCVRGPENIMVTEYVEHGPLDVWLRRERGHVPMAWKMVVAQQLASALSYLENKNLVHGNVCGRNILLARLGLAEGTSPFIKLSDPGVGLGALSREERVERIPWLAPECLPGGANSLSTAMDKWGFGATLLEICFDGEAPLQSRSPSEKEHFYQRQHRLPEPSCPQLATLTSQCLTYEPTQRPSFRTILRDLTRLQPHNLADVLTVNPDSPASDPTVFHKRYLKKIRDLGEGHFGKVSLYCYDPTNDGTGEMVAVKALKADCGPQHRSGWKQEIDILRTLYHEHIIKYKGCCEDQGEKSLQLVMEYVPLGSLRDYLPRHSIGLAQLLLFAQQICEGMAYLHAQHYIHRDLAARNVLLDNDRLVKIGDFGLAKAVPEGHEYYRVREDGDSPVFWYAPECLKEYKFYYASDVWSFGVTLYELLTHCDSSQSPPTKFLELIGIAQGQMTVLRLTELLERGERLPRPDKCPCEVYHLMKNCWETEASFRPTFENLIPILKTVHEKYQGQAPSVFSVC

COc1cc(Cl)ccc1Nc1cc(Nc2cc(C)ccn2)nc2[nH]n(C)c(=O)c12
Kd: > 10 nM
